Here are results for 15 compounds from patent US8492310B2, “Herbicidal compositions containing benzoylpyrazole compounds” (priority 2008, dated 2013).

The test system of test [1] is velvetleaf (Abutilon theophrasti MEDIC.). Put plainly: Foliar treatment pot test, visual growth inhibition rate, velvetleaf (AT). The format is in vivo. The text has this: (§1) When the herbicidal activity in a case where two active ingredients are combined, is larger than the simple sum of the respective herbicidal activities of the two active ingredients (the expected activity), it is called a synergistic effect. The activity expected by the combination of two active ingredients can be calculated as follows (Colby S. R., “Weed”, vol. 15, p. 20-22, 1967). E=α+β−(α×β÷100) where
(§2) Upland field soil was put into a 1/1,000,000 hectare pot, and seeds of various plants (barnyardgrass (Echinochloa crus-qalli L.), crabgrass (Digitaria sanguinalis L.), giant foxtail (Setaria faberi Herrm.), velvetleaf (Abutilon theophrasti MEDIC.) and prickly sida (Sida spinosa L.)) were sown. When the respective plants reached predetermined leaf stage, herbicidal compositions in predetermined amounts were diluted with water in an amount corresponding to 300 L/ha and applied for foliar treatment by a small sprayer.
(§3) Further, in accordance with the above Colby's formula, the growth inhibition rate (calculated value) was calculated. In Tables, with respect to the compound Q, Compound Nos. in Table 1 are described, and with respect to other herbicidal compounds, common names are described. Further, in Tables, barnyardgrass is represented by “EC”, crabgrass by “DS”, giant foxtail by “SF”, velvetleaf by “AT”, and prickly sida by “SS”.

For test [2], the system named is crabgrass (Digitaria sanguinalis L.). Put plainly: Foliar treatment pot test, visual growth inhibition rate, crabgrass (DS). The format is in vivo. The following applies: for inhibition at […]: 2.5 g/ha.
Excerpt: as §1, §2, §3

Setting [3] is: Abutilon theophrasti, foliar, 552 h, 3.0-3.5 leaf stage, 23 DAT, read-out: Growth inhibition rate (%) of AT Measured value.
[4] abbreviates: Digitaria sanguinalis, foliar, 552 h, 4.0-5.1 leaf stage, 23 DAT, read-out: Growth inhibition rate (%) of DS Measured value.
The mark [5] stands for this setting: Abutilon theophrasti, foliar, 528 h, 4.1-4.5 leaf stage, 22 DAT, read-out: Growth inhibition rate (%) of AT Measured value.
The mark [6] stands for this setting: Abutilon theophrasti, foliar, 528 h, 4.5-5.0 leaf stage, 22 DAT, read-out: Growth inhibition rate (%) of AT Measured value.
The mark [7] stands for this setting: Digitaria sanguinalis, foliar, 504 h, 4.0-5.1 leaf stage, 21 DAT, read-out: Growth inhibition rate (%) of DS Measured value.
The mark [8] stands for this setting: Digitaria sanguinalis, foliar, 528 h, 4.0-5.0 leaf stage, 22 DAT, read-out: Growth inhibition rate (%) of DS Measured value.

Read-outs that look alike come from different tables or passages of the source.

With `O=C(O)COc1ccc(Cl)cc1Cl` [2,4-D], the “Growth inhibition rate (%) of AT Measured value” in test [1] (4.2-4.3 leaf stage, 20 DAT, 25 g/ha) was 45%.

As for `CCc1cc(C)cc(CC)c1-c1c(OC(=O)C(C)(C)C)n2n(c1=O)CCOCC2` [Pinoxaden], the inhibition at 25 g/ha in test [1] (Abutilon theophrasti, foliar, 504 h, AT 4.0-4.3 leaf stage, 21 DAT, active ingredient 25 g/ha, read-out: Growth inhibition rate (%) of AT Measured value) worked out at 0%; in test [2] (Digitaria sanguinalis, foliar, 504 h, 4.0-5.1 leaf stage, 21 DAT, 25 g/ha, read-out: Growth inhibition rate (%) of DS Measured value), 70%. The inhibition at 50 g/ha turned out to be 0% in test [1] (Abutilon theophrasti, foliar, 504 h, AT 4.0-4.3 leaf stage, 21 DAT, active ingredient 50 g/ha, read-out: Growth inhibition rate (%) of AT Measured value) and 90% in test [2] (Digitaria sanguinalis, foliar, 504 h, 4.0-5.1 leaf stage, 21 DAT, 50 g/ha, read-out: Growth inhibition rate (%) of DS Measured value). Further, the inhibition at 100 g/ha in test [1] (Abutilon theophrasti, foliar, 504 h, AT 4.0-4.3 leaf stage, 21 DAT, active ingredient 100 g/ha, read-out: Growth inhibition rate (%) of AT Measured value) was determined as 0%; in test [2] (Digitaria sanguinalis, foliar, 504 h, 4.0-5.1 leaf stage, 21 DAT, 100 g/ha, read-out: Growth inhibition rate (%) of DS Measured value), 70%.

For `CON(C)C(=O)Nc1ccc(Cl)c(Cl)c1` [Linuron, linuron], the inhibition at 250 g/ha was determined as 85% in test [1] (Abutilon theophrasti, foliar, 336 h, 3.5-4.3 leaf stage, 14 DAT, read-out: Growth inhibition rate (%) of AT Measured value); 40% in test [1] (Abutilon theophrasti, foliar, 576 h, 3.2-4.1 leaf stage, 24 DAT, read-out: Growth inhibition rate (%) of AT Measured value); 30% in test [2] (Digitaria sanguinalis, foliar, 336 h, 5.0-5.5 leaf stage, 14 DAT, 250 g/ha, read-out: Growth inhibition rate (%) of DS Measured value).

For `CCc1cccc(CC)c1N(COC)C(=O)CCl` [Alachlor, alachlor], the inhibition at 300 g/ha in test [1] (Abutilon theophrasti, foliar, 504 h, 3.8-4.4 leaf stage, 21 DAT, read-out: Growth inhibition rate (%) of AT Measured value) was found to be 0%; in test [2] (Digitaria sanguinalis, foliar, 504 h, 5.0-5.5 leaf stage, 21 DAT, read-out: Growth inhibition rate (%) of DS Measured value) it was 10%.

`CCOC(=O)OC(C)Oc1c(C(=O)c2ccc(S(C)(=O)=O)c(OCCOC)c2C)cnn1C` (centres unmarked) [NO. 2]: the “Growth inhibition rate (%) of AT Measured value” in test [1] (4.0-4.3 leaf stage, 22 DAT, 3.75 g/ha) was determined as 0%.

Turning to `CCS(=O)(=O)c1cccnc1S(=O)(=O)NC(=O)Nc1nc(OC)cc(OC)n1` [Rimsulfuron, rimsulfuron], in test [1] (Abutilon theophrasti, foliar, 504 h, 3.5-4.3 leaf stage, 21 DAT, 20 g/ha, read-out: Growth inhibition rate (%) of AT Measured value), the inhibition at 20 g/ha came to 99%. The inhibition at 15 g/ha in test [1] (Abutilon theophrasti, foliar, 552 h, 3.0-3.5 leaf stage, 23 DAT, 15 g/ha, read-out: Growth inhibition rate (%) of AT Measured value) came out at 70%; in test [2] (Digitaria sanguinalis, foliar, 552 h, 4.0-5.1 leaf stage, 23 DAT, 15 g/ha, read-out: Growth inhibition rate (%) of DS Measured value), 98%.

As to `CC(C)N(C(=O)COc1nnc(C(F)(F)F)s1)c1ccc(F)cc1` [Flufenacet], the inhibition at 300 g/ha in test [1] (setting [3]) and in test [2] (setting [4]) was 0% in each case. For the same compound, in test [2] (Digitaria sanguinalis, foliar, 480 h, 5.0-5.2 leaf stage, 20 DAT, read-out: Growth inhibition rate (%) of DS Measured value), the inhibition at 200 g/ha came to 0%.

`COc1nc(C)nc(NC(=O)NS(=O)(=O)c2ccccc2CCC(F)(F)F)n1` [Prosulfuron, prosulfuron]: the inhibition at 10 g/ha came to 100% in test [1] (Abutilon theophrasti, foliar, 504 h, 3.0-3.5 leaf stage, 21 DAT, read-out: Growth inhibition rate (%) of AT Measured value); 0% in test [1] (setting [6]); 0% in test [2] (Digitaria sanguinalis, foliar, 552 h, 4.0-5.1 leaf stage, 23 DAT, 10 g/ha, read-out: Growth inhibition rate (%) of DS Measured value). The inhibition at 1.25 g/ha in test [1] (Abutilon theophrasti, foliar, 504 h, 4.0-4.3 leaf stage, 21 DAT, 1.25 g/ha, read-out: Growth inhibition rate (%) of AT Measured value) came to 50%; in test [2] (Digitaria sanguinalis, foliar, 504 h, 4.0-5.1 leaf stage, 21 DAT, 1.25 g/ha, read-out: Growth inhibition rate (%) of DS Measured value), 10%. In addition, the inhibition at 5 g/ha in test [1] (Abutilon theophrasti, foliar, 504 h, 4.0-4.3 leaf stage, 21 DAT, read-out: Growth inhibition rate (%) of AT Measured value) amounted to 95%; in test [1] (setting [5]), 90%; in test [1] (setting [6]) it was 0%; in test [2] (setting [7]), 0%; in test [2] (setting [8]), 0%. The inhibition at […] in test [2] (setting [7]) came out at 5%; in test [2] (Digitaria sanguinalis, foliar, 528 h, 4.8-5.5 leaf stage, 22 DAT, read-out: Growth inhibition rate (%) of DS Measured value) it was 0%.

`CS(=O)(=O)c1ccc(C(=O)C2C(=O)CCCC2=O)c(Cl)c1` [sulcotrione]: the inhibition at 25 g/ha in test [1] (Abutilon theophrasti, foliar, 480 h, read-out: Growth inhibition rate (%) of AT Measured value, 4.0-4.2 leaf stage, 20 DAT, 25 g/ha) was 40%. Besides, the inhibition at 50 g/ha in test [1] (Abutilon theophrasti, foliar, 480 h, read-out: Growth inhibition rate (%) of AT Measured value, 4.0-4.2 leaf stage, 20 DAT, 50 g/ha) was 60%. The inhibition at 100 g/ha in test [1] (Abutilon theophrasti, foliar, 480 h, read-out: Growth inhibition rate (%) of AT Measured value, 4.0-4.2 leaf stage, 20 DAT, 100 g/ha) was 95%.

Take `CCOC(=O)C(Cl)Cc1cc(-n2nc(C)n(C(F)F)c2=O)c(F)cc1Cl` (centres unmarked) [Carfentrazone-ethyl, carfentrazone-ethyl]: the inhibition at 15 g/ha in test [1] (Abutilon theophrasti, foliar, 336 h, read-out: Growth inhibition rate (%) of AT Measured value, 3.0-4.0 leaf stage, 14 DAT, 15 g/ha) was determined as 98%; in test [2] (Digitaria sanguinalis, foliar, 336 h, read-out: Growth inhibition rate (%) of DS Measured value, 4.0-5.0 leaf stage, 14 DAT, 15 g/ha) it was 5%; in test [2] (Digitaria sanguinalis, foliar, 384 h, read-out: Growth inhibition rate (%) of DS Measured value, 4.0-5.0 leaf stage, 16 DAT, 15 g/ha) it was 0%. Moreover, the inhibition at 7 g/ha in test [1] (Abutilon theophrasti, foliar, 504 h, read-out: Growth inhibition rate (%) of AT Measured value, 3.0-3.5 leaf stage, 21 DAT, 7 g/ha) turned out to be 99%.

For the compound `N.O=C(O)CNCP(=O)(O)O` [Glyphosate-ammonium, glyphosate-ammonium], the “Growth inhibition rate (%) of AT Measured value” in test [1] (3.5-4.3 leaf stage, 14 DAT, 100 g/ha) stood at 30%; in test [1] (3.5-4.3 leaf stage, 21 DAT, 200 g/ha), 15%. Besides, the “Growth inhibition rate (%) of DS Measured value” in test [2] (5.0-5.5 leaf stage, 21 DAT, 100 g/ha) is on record as 10%.

Take `CC(C)N1C(=O)c2ccccc2NS1(=O)=O` [Bentazone-sodium, bentazone-sodium]: the inhibition at 100 g/ha in test [1] (Abutilon theophrasti, foliar, 528 h, 4.1-4.5 leaf stage, 22 DAT, 100 g/ha, read-out: Growth inhibition rate (%) of AT Measured value) was found to be 0%. For the same compound, the inhibition at 200 g/ha in test [1] (Abutilon theophrasti, foliar, 552 h, 3.0-3.5 leaf stage, 23 DAT, 200 g/ha, read-out: Growth inhibition rate (%) of AT Measured value) came out at 30%; in test [2] (setting [8]), 0%; in test [2] (setting [4]), 0%.

On to `O=C(O)c1nc(Cl)ccc1Cl` [Clopyralid, clopyralid], for which the inhibition at 300 g/ha in test [1] (setting [5]) stood at 40%; in test [1] (setting [3]), 35%; in test [2] (setting [8]), 0%; in test [2] (setting [4]) it was 0%.

Take `COC(=O)c1c(Cl)nn(C)c1S(=O)(=O)NC(=O)Nc1nc(OC)cc(OC)n1` [Halosulfuron-methyl]: the inhibition at 20 g/ha in test [2] (Digitaria sanguinalis, foliar, 336 h, read-out: Growth inhibition rate (%) of DS Measured value, 5.0-5.5 leaf stage, 14 DAT, 20 g/ha) was 0%.

For `O=C(O)CNCP(=O)([O-])O.[K+]` [Glyphosate-potassium], the “Growth inhibition rate (%) of DS Measured value” in test [2] (4.0-4.2 leaf stage, 20 DAT, 62.5 g/ha) was 0%; in test [2] (4.0-4.2 leaf stage, 20 DAT, 125 g/ha) it was 5%; in test [2] (4.0-4.2 leaf stage, 20 DAT, 250 g/ha), 20%.
